The source made the active and inactive calls. The calls are words filed in the database; no cut-off is given here.
Key:
L5178Y [1] = experiment: Tested in vivo for antileukemic activity in the asparagine dependent L5178Y lymphatic leukemia cells in mice up to intraperitoneal doses 100 mg/kg; NA = no antitumor activity; type: functional, organism-based; set-up: dose 100 mg/kg; conditions: Mus musculus
L5178Y [2] = experiment: Tested in vivo for antileukemic activity in the asparagine dependent L5178Y lymphatic leukemia cells in mice up to intraperitoneal doses 40 mg/kg; NA = no antitumor activity; type: functional, organism-based; set-up: dose 40 mg/kg; conditions: Mus musculus

## NC(=O)C(F)C(N)C(=O)O (configuration not stated)
L5178Y [1]
  Activity: inactive

## NC(C(=O)O)C(F)C(=O)O (configuration not stated)
L5178Y [2]
  Activity: inactive
